Measured values as given in patent publication US20110104173A1, “INHIBITION OF DEGRADATION OF EXTRACELLULAR MATRIX” (The Australian National University, priority 2006, published 2011).

How the values were obtained:
[1] = test system: prediabetic adult female NOD/Lt mice; experiment: PI-88 treatment of prediabetic NOD/Lt mice, onset of autoimmune diabetes; type: in vivo, mouse; details: PI-88 10 mg/kg/day i.p. from 10.5 weeks of age, vs saline controls
Text: FIG. 3: PI-88 treatment prevents development of autoimmune diabetes in NOD/Lt mice. […] The incidence of diabetes in the holding female NOD/Lt mouse colony of the inventors is 60%.
Studies conducted by the inventors have shown that heparanase transcripts are increased 7-fold in prediabetic and diabetes-onset NOD mice, compared to neonatal NOD mice; only background levels were detected in normal CBA/H mice (see TABLE 1).

[2] = test system: NODscid islet isografts in diabetic NOD/Lt female mice; experiment: NODscid islet isografts in diabetic NOD/Lt mice, recurrence of autoimmune disease; type: in vivo, mouse
Text: FIG. 8: (a) PI-88 therapy prevents disease recurrence in islet isografts. Isografts of 450-500 female NODscid islets transplanted beneath the kidney capsule of diabetic NOD/Lt female mice return non-fasting blood glucose levels to the normal range (shaded region defines the normal range). Without further treatment in a control recipient (circles), hyperglycemia returned from day 3. In contrast, an NODscid islet isograft maintains normoglycemia for up to 14 days in a diabetic NOD mouse treated with PI-88 (10 mg/kg/day i.p.) from day 3 (squares).
Consequently in vivo treatment of transplanted mice with PI-88 should prevent islet allograft rejection, disease recurrence in islet isografts (see FIG. 8) and facilitate the survival and function of islet allografts in diabetic NOD/Lt mice. To assess whether PI-88 therapy is graft-protective, NODscid islets were transplanted to autoimmune diabetic NOD mice 400-500 islets/graft. The mice were treated with PI-88 (10 mg/kg/day) i.p. from day 3 post-transplant (after graft revascularisation). Control transplanted mice were treated with saline. Graft function was monitored by measurement of non-fasting blood glucose levels (using a glucometer (MediSense 2)) 2-3×/week.

[3] = test system: BALB/c (H-2d) islet allografts in CBA/H (H-2k) mice; experiment: BALB/c islet allograft survival in CBA/H mice; type: in vivo, mouse; details: 7 days post-transplant, PI-88 treated recipient vs control
Text: HS plays a critical role in maintaining the integrity and survival of islets and islet beta cells. […] It is therefore possible that heparanase also plays an important role in the immunological destruction of islet allografts (even in the absence of autoimmune attack). […] Heparanase inhibitors therefore represent an anti-rejection strategy for islet transplants in allogeneic hosts and have the capacity to protect grafted islets from both alloimmune and autoimmune attack.

[4] = test system: lipopolysaccharride (LPS)-induced inflammation; details: in vivo treatment, rodents; cited from earlier work
[5] = test system: BALB/c islet beta cells; experiment: Islet beta cell survival in vitro after heparitinase treatment; type: cell-based, mouse; details: 5-50 μg/ml heparin in culture, P<0.0001
Text: FIG. 9: Isolated islets dispersed into single cells are predominantly insulin-producing beta cells, as confirmed by immunofluorescence. In contrast to control islet cells that remained intact over a 2 day culture period, beta cells treated for 1 hr with bacterial heparitinases (heparinases) (I+II+III; 0.25 U/ml) died (a). Placement of treated cells on an ECM (produced in vitro by a cell line) was able to largely rescue the beta cells from heparitinase-induced cell death (a).
In vitro studies were undertaken to further validate this concept. Isolated BALB/c islets dispersed into single cells using Dispase (1 mg/ml) consist predominantly of insulin-producing beta cells, as confirmed by immunofluorescence. […] Placement of treated cells on an ECM (produced in vitro by a cell line) was able to largely rescue the beta cells from heparitinase-induced cell death (P<0.0001) (FIG. 9(a)). These findings indicate that islet beta cells need cell-associated HS to survive. […] Islet beta cells therefore require cell-associated HS to remain viable and healthy.

[6] = test system: skin allograft; details: heparins exhibiting some anti-heparanase activity, mice; cited from earlier work

**Q.** For PI-88, which “onset of clinical diabetes” value [1] is on record?
**A.** The value was “prevents the onset of clinical diabetes in mice up to 24 weeks of age”.

**Q.** What about the “time normoglycemia (non-fasting blood glucose) maintained by islet isograft” value ([2]; PI-88 10 mg/kg/day i.p. from day 3 post-transplant, control hyperglycemic from day 3) of the same substance?
**A.** The value was “up to 14 days”.

**Q.** What about the “isograft histology at harvest (hematoxylin and eosin)” value ([2]; PI-88-treated mouse, control isograft showed aggressive autoimmune destruction) of the same substance?
**A.** The value was “revascularised islets”.

**Q.** What about the islet allograft histology [3] of the same substance?
**A.** The islet allograft histology was “better preservation of the engrafted allogeneic islets”.

**Q.** And the LPS-induced inflammation [4]?
**A.** Its LPS-induced inflammation is “prevented”.

**Q.** What about the “leukocyte behaviour by intra-vital microscopy” value [4] of the same substance?
**A.** Its value is “leukocyte rolling and adherence to the vascular BM but no extravasation”.

**Q.** Which “rescue of heparitinase-treated beta cells from cell death” value [5] does the source give for heparin here?
**A.** The value was “efficiently rescued”.

**Q.** And the skin allograft survival [6]?
**A.** Its skin allograft survival is “prolonged skin allograft survival”.
